Measured values: ChEMBL document CHEMBL5058564, “EUbOPEN Chemogenomics Library 2 (Incucyte)” (2022)

What was measured:
Type in all cases: toxicity, cell-based
HEK-293T = experiment: Incucyte cell viability with HEK293T; conditions: human, 10 µM, compound concentration 10 uM
Fibroblast = experiment: Incucyte cell viability with human fibroblast; conditions: 10 µM, compound concentration 10 uM
U2OS = experiment: Incucyte cell viability with U2OS; conditions: human, 10 µM, compound concentration 10 uM
[1] = 0 h, replicate number 2, timepoint 0 hours
[2] = 6 h, replicate number 1, timepoint 6 hours
[3] = 12 h, replicate number 1, timepoint 12 hours
[4] = 18 h, replicate number 1, timepoint 18 hours
[5] = 18 h, replicate number 2, timepoint 18 hours
[6] = 24 h, replicate number 1, timepoint 24 hours
[7] = 0 h, replicate number 1, timepoint 0 hours
[8] = 6 h, replicate number 2, timepoint 6 hours
[9] = 12 h, replicate number 2, timepoint 12 hours
[10] = 24 h, replicate number 2, timepoint 24 hours
Further: unitless GR value; below 1 slowed growth and below 0 cell loss.

Compound | Growth Rate (HEK-293T; [2]) | Growth Rate (HEK-293T; [3]) | Growth Rate (HEK-293T; [4]) | Growth Rate (HEK-293T; [6]) | Growth Rate (Fibroblast; [1]) | Growth Rate (Fibroblast; [2]) | Growth Rate (Fibroblast; [3]) | Growth Rate (Fibroblast; [4]) | Growth Rate (Fibroblast; [6]) | Growth Rate (U2OS; [8]) | Growth Rate (U2OS; [9]) | Growth Rate (U2OS; [5]) | Growth Rate (HEK-293T; [9]) | Growth Rate (HEK-293T; [10]) | Growth Rate (Fibroblast; [8]) | Growth Rate (Fibroblast; [9]) | Growth Rate (Fibroblast; [5]) | Growth Rate (U2OS; [3]) | Growth Rate (U2OS; [6]) | Growth Rate (U2OS; [7]) | other results
NC[C@H](O)c1ccc(O)c(O)c1.O.O=C(O)C(O)C(O)C(=O)O | 0.63 | 0.75 | 0.76 | 0.86 | 0.62 | 0.19 | 0.79 | 0.97 | 0.77 | 0.72 | 0.93 | 0.98 | – | – | – | – | – | – | – | – | Growth Rate (HEK-293T; [1]): 0.69; Growth Rate (HEK-293T; [5]): 0.8; Growth Rate (Fibroblast; [7]): 0.92; Growth Rate (U2OS; [1]): 0.46
NC(=O)c1cccc(-c2cc(Nc3ccc(OC(F)(F)F)cc3)ncn2)c1 | -0.43 | 0.03 | 0.18 | 0.26 | – | -0.84 | -0.48 | -0.35 | -0.05 | – | – | 0.93 | 0.25 | 0.48 | 0.58 | 0.37 | 0.53 | 0.98 | 0.94 | – | Growth Rate (HEK-293T; [8]): 0.03; Growth Rate (HEK-293T; [5]): 0.3; Growth Rate (Fibroblast; [10]): 0.46
Br.Br.N=C(N)NCCSC(=N)N | 0.74 | 0.76 | 0.98 | 1 | 0.9 | 0.23 | 0.19 | 0.54 | 0.49 | 0.98 | 0.99 | – | 0.86 | 0.81 | 0.98 | – | – | 0.88 | 0.37 | -0.2 | Growth Rate (HEK-293T; [5]): 0.92; Growth Rate (U2OS; [1]): 0.56; Growth Rate (U2OS; [4]): 0.96
COc1ccc(C(=O)N2CCN(C(=O)/C=C/c3ccc(Br)cc3)CC2)cc1 | 0.09 | – | – | – | 0.76 | -0.51 | 0.15 | 0.44 | 0.08 | 0.66 | 0.72 | 0.63 | – | – | – | 0.95 | 0.79 | 0.8 | 0.88 | – | Growth Rate (U2OS; [2]): -0.38; Growth Rate (U2OS; [4]): 0.64; Growth Rate (U2OS; [10]): 0.73
COc1cc2c(Oc3ccc(NC(=O)C4(C(=O)Nc5ccc(F)cc5)CC4)cc3F)ccnc2cc1OCCCN1CCOCC1 [FORETINIB] | -0.97 | -0.79 | -0.65 | -0.54 | – | -0.99 | -0.98 | -0.93 | -0.88 | -0.08 | -0.03 | 0.01 | -0.89 | -0.7 | -1 | -0.95 | -0.9 | -0.1 | 0 | – | Growth Rate (HEK-293T; [8]): -0.98; Growth Rate (HEK-293T; [5]): -0.82; Growth Rate (Fibroblast; [10]): -0.91; Growth Rate (U2OS; [2]): 0.16; Growth Rate (U2OS; [4]): -0.03
Cc1ccc(Cn2nc(C(=O)N[C@@H]3C(C)(C)[C@@H]4CC[C@@]3(C)C4)cc2-c2ccc(Cl)c(C)c2)cc1 | – | – | 0.94 | 0.95 | – | 0.46 | 0.76 | 0.78 | 0.72 | 0.89 | 0.74 | 0.82 | 0.96 | – | 0.01 | 0.14 | – | 0.92 | 0.86 | -1 | Growth Rate (HEK-293T; [8]): 0.75; Growth Rate (U2OS; [10]): 0.74
Cc1nn(C)c2nc(NNC(=O)Nc3cc(Cl)nc(Cl)c3)cc(C(C)C)c12 | – | – | – | 0.97 | 0.58 | – | – | – | – | – | 0.96 | – | – | – | – | – | – | – | – | – | Growth Rate (HEK-293T; [7]): 0.64; Growth Rate (HEK-293T; [1]): 0.57; Growth Rate (Fibroblast; [7]): 0.09; Growth Rate (U2OS; [1]): -1
O=S(=O)(c1ccccc1)c1cnc2c(N3CCNCC3)cccc2c1 [INTEPIRDINE] | – | – | – | – | 0.36 | 0.23 | 0.57 | 0.61 | 0.42 | 0.23 | 0.78 | 0.82 | – | – | – | – | 0.94 | – | – | -0.78 | Growth Rate (HEK-293T; [7]): 1; Growth Rate (HEK-293T; [1]): 0.98; Growth Rate (Fibroblast; [7]): 0.87; Growth Rate (Fibroblast; [10]): 0.98; Growth Rate (U2OS; [10]): 0.84
CC(/C=C1\SC(=S)N(CCCC(=O)Nc2ccc(C(=O)O)c(O)c2)C1=O)=C\c1ccccc1 | – | – | – | – | -0.04 | 0.97 | – | – | 0.83 | 0.79 | – | – | – | – | – | – | – | – | – | 0.71 | Growth Rate (HEK-293T; [7]): 0.57; Growth Rate (HEK-293T; [1]): 0.54; Growth Rate (U2OS; [1]): -1
COc1ccccc1N1CCN(CCCCNC(=O)c2ccc3ccccc3c2)CC1.Cl | 0.59 | – | 0.54 | 0.56 | -0.14 | -0.59 | 0.23 | – | -0.24 | 0.78 | 0.96 | 0.97 | 0.83 | 0.66 | 0.14 | -0.06 | 0.09 | 0.58 | 0.81 | 0.06 | Growth Rate (HEK-293T; [1]): 0.97; Growth Rate (HEK-293T; [8]): 0.65; Growth Rate (Fibroblast; [7]): 0.79; Growth Rate (U2OS; [2]): 0.51; Growth Rate (U2OS; [4]): 0.77; Growth Rate (U2OS; [10]): 0.92
CC(=O)O[C@H]1C(=O)[C@@]2(C)[C@H]([C@H](OC(=O)c3ccccc3)[C@]3(O)C[C@H](OC(=O)[C@H](O)[C@@H](NC(=O)c4ccccc4)c4ccccc4)C(C)=C1C3(C)C)[C@]1(OC(C)=O)CO[C@@H]1C[C@@H]2O [PACLITAXEL] | -0.58 | -0.24 | -0.17 | -0.03 | – | -0.93 | -0.65 | -0.57 | -0.4 | -0.14 | -0.2 | -0.14 | -0.18 | -0.1 | -0.73 | -0.32 | 0.02 | 0.12 | 0.07 | -0.24 | Growth Rate (HEK-293T; [8]): -0.59; Growth Rate (HEK-293T; [5]): -0.18; Growth Rate (Fibroblast; [10]): 0.16; Growth Rate (U2OS; [1]): 0.29; Growth Rate (U2OS; [2]): 0.37; Growth Rate (U2OS; [4]): 0.09; Growth Rate (U2OS; [10]): -0.09
Nc1nc(-c2ccco2)c2cnn(Cc3ccccc3F)c2n1 | -0.23 | -0.22 | -0.17 | -0.12 | – | -0.86 | -0.81 | -0.75 | -0.66 | 0.28 | 0.27 | 0.48 | -0.25 | 0.12 | -0.89 | -0.55 | -0.29 | – | 0.89 | -0.81 | Growth Rate (HEK-293T; [8]): -0.21; Growth Rate (HEK-293T; [5]): -0.05; Growth Rate (Fibroblast; [10]): -0.09; Growth Rate (U2OS; [2]): 0.66; Growth Rate (U2OS; [4]): 0.95; Growth Rate (U2OS; [10]): 0.48
C[C@@H]1C[C@H]2[C@@H]3CCC4=CC(=O)C=C[C@]4(C)[C@@]3(F)[C@@H](O)C[C@]2(C)[C@@]1(O)C(=O)CO [DEXAMETHASONE] | – | 0.98 | 0.86 | 0.7 | – | 0.88 | – | – | – | 0.65 | – | 0.95 | – | 0.99 | – | – | – | – | – | 0.07 | Growth Rate (HEK-293T; [7]): 0.4; Growth Rate (Fibroblast; [7]): 0.73; Growth Rate (U2OS; [1]): -1
